{"source": "ChEMBL document CHEMBL2385071", "about": "“Synthesis and biological investigation of coumarin piperazine (piperidine) derivatives as potential multireceptor atypical antipsychotics” (J Med Chem, 2013)", "key": {"[1]": {"assay": "AUC (0 to infinity) in rat at 5 mg/kg, iv by HPLC-MS analysis", "assay_type": "ADME, organism-based", "design": "time infinity, dose 5 mg/kg, route intravenous", "conditions": "plasma"}, "[2]": {"tested_on": "Rattus norvegicus", "assay": "Antipsychotic activity in po dosed rat assessed as reduction in conditioned avoidance response after 60 mins", "assay_type": "functional"}, "[3]": {"organism": "Mus musculus", "assay": "animal or person", "conditions": "po"}, "[4]": {"biological_target": "T1, D(2) dopamine receptor (Homo sapiens, UniProt P14416)", "T1 sequence (P14416 whole entry)": "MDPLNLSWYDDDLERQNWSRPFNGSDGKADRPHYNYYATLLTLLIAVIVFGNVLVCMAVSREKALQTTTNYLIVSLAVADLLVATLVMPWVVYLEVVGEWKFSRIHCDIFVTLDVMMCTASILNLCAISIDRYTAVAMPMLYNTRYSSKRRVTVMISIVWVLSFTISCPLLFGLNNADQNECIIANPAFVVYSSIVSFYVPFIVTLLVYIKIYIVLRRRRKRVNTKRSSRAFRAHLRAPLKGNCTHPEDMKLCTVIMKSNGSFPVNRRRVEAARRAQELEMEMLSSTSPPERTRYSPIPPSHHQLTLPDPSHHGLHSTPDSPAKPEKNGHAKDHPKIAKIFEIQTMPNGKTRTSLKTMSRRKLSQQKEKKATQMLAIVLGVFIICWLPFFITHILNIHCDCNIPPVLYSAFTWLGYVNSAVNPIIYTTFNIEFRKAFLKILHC", "assay": "Antagonist activity at dopamine D2 receptor (unknown origin) expressed in CHOK1 cells coexpressing Galpha15 assessed as inhibition of agonist-induced response at 10 uM incubated for 60 mins in incubator followed by 15 mins at room temperature by FLIPR assay relative to control", "assay_type": "cell-based", "conditions": "CHO-K1"}, "[5]": {"assay": "Half life in rat at 5 mg/kg, iv by HPLC-MS analysis", "assay_type": "ADME, organism-based", "design": "dose 5 mg/kg, route intravenous", "conditions": "in vivo"}, "[6]": {"tested_on": "Mus musculus", "description": "Antipsychotic activity in po dosed mouse assessed as reduction in apomorphine-induced climbing behavior administered for 30 mins prior to apomorphine-challenge measured at 10 to 30 mins post-dose"}, "[7]": {"biological_target": "T1, D(2) dopamine receptor"}, "[8]": {"assay": "AUC (0 to 12 hrs) in rat at 5 mg/kg, iv by HPLC-MS analysis", "assay_type": "ADME, organism-based", "design": "time < 12 hr, dose 5 mg/kg, route intravenous", "conditions": "plasma"}, "[9]": {"tested_on": "Rattus norvegicus", "assay": "Toxicity in rat assessed as QT interval prolongation/cardiac liability at 5 to 60 mg/kg, po by electrophysiology assay", "assay_type": "organism-based", "design": "dose 5-60 mg/kg, route oral", "conditions": "in vivo"}, "[10]": {"assay": "Oral bioavailability in rat at 12 mg/kg by HPLC-MS analysis", "assay_type": "ADME, organism-based", "conditions": "in vivo"}, "[11]": {"assay": "in vivo", "conditions": "mouse, po"}, "[12]": {"biological_target": "5-hydroxytryptamine receptor 2A (Homo sapiens, UniProt P28223)", "sequence (P28223 whole entry)": "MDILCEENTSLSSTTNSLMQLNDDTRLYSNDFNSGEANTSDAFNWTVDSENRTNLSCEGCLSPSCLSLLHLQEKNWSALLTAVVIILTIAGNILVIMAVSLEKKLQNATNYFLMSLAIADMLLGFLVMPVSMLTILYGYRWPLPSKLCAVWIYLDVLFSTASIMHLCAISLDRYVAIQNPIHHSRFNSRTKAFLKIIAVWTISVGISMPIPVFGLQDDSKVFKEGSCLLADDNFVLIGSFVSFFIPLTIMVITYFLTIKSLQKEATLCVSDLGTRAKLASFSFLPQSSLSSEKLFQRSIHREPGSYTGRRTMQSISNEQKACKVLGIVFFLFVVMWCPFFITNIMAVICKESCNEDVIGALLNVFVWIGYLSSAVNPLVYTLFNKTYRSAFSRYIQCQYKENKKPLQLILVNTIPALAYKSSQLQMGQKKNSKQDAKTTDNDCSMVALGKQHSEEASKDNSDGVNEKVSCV", "assay": "Antagonist activity at 5HT2A receptor (unknown origin) expressed in CHOK1 cells coexpressing Galpha15 assessed as inhibition of agonist-induced response at 10 uM incubated for 60 mins in incubator followed by 15 mins at room temperature by FLIPR assay relative to control", "assay_type": "cell-based", "conditions": "CHO-K1"}, "[13]": {"assay": "AUC (0 to 12 hrs) in rat at 12 mg/kg, po by HPLC-MS analysis", "assay_type": "ADME, organism-based", "design": "time < 12 hr, dose 12 mg/kg, route oral", "conditions": "plasma"}}}
{"smiles": "Cc1cc(=O)oc2c(Cl)c(OCCCCN3CCC(c4noc5cc(F)ccc45)CC3)ccc12", "values": [{"measurement": "AUC(0-inf)", "setting": "[1]", "result": 914, "unit": "ng·h/mL"}, {"measurement": "Activity", "setting": "[2]", "result": "Dose-dependent effect"}, {"measurement": "ED50", "setting": "[2]; 1 h", "result": 6.5, "unit": "mg/kg"}, {"measurement": "ED50", "setting": "[3]", "result": 0.32, "unit": "mg/kg"}, {"measurement": "inhibition", "setting": "[4]", "result": 101, "unit": "%"}, {"measurement": "half-life", "setting": "[5]", "result": 5, "unit": "h"}, {"measurement": "Activity", "setting": "[6]", "result": "Dose-dependent effect"}, {"measurement": "IC50", "setting": "[7]", "result": 26.3, "unit": "nM"}, {"measurement": "AUC(0-t) at 12 h", "setting": "[8]", "result": 822, "unit": "ng·h/mL"}, {"measurement": "Activity", "setting": "[9]", "result": "Non-toxic"}, {"measurement": "bioavailability", "setting": "[10]", "result": 32, "unit": "%"}, {"measurement": "selectivity ratio", "setting": "[11]", "result": 221}, {"measurement": "inhibition", "setting": "[12]", "result": 99.1, "unit": "%"}, {"measurement": "AUC(0-t) at 12 h", "setting": "[13]", "result": 644, "unit": "ng·h/mL"}]}
